Data as given in PMC5522996, “Big conductance calcium‐activated potassium channel openers control spasticity without sedation” (British Journal of Pharmacology, 2017).
pIC50: −log10 of the molar value. Entries after “also recorded” stand apart in the source; their conditions may differ.

Key:
rats = experiment: Reproductive toxicology in rats; assay type: in vivo, rat; details: p.o.
5-HT6 = molecular target: T1, 5-HT6 (Homo sapiens, UniProt P50406); experiment: Receptor binding profile of VSN16R; details: 10µM VSN16R
T1 construct: purchased Cerep; Chantest; DiscoveRx; Multispan; MDS Pharma Services

Beagle dogs = experiment: Telemetry of heart rate and blood pressure in Beagle dogs; assay type: in vivo, dog
Description: Parameter Time Vehicle 50mg/kg 100mg/kg 200mg/kg
Diastolic Blood Pressure (mm Hg) 0 min 79 ± 4 83 ± 4 86 ± 4 87 ± 1
Adult male Beagle dogs implanted previously with a DSI Physio Tel TL11-M2 D70-PCT intramuscular
telemetry device received either: 50mg/kg, 100mg/kg or 200mg/kg p.o. VSN16R in water or water.
The results represent the mean ± SD. n=4.

WP2uvvA = experiment: Bacterial reverse mutation, revertants per plate; assay type: cell-based, Escherichia coli
Description: Strain of Organism Treatment Dose Revertants per plate
First Mutation without Metabolic Stimulation
Second Mutation without Metabolic Stimulation
VSN16R was incubated at various concentrations with either TA1535, TA1537, TA98 and TA100 strains of Salmonella typhimurium, which carry mutations in genes involved in histidine synthesis, and WP2uvvA Escherichia coli. The bacteria are spread on agar plates with limiting histidine content and incubated for 48 h. The number of histidine gene negative to positive revertants was assessed in two experiments. The results represent the mean ± SD. n=3/group. This was performed by Charles

μ = molecular target: T2, μ (Homo sapiens, UniProt P35372); experiment: Receptor binding profile of VSN16R; details: 10µM VSN16R
T2 construct: purchased Cerep; Chantest; DiscoveRx; Multispan; MDS Pharma Services

[1] = system: primary porcine aorta endothelium; experiment: Patch clamp of primary pig aorta endothelium; assay type: cell-based
rat mesenteric artery = experiment: Methoxamine‐evoked contraction of rat mesenteric artery; assay type: cell-based
Description: Vessels were equilibrated and set to a basal tension of 2 to 2.5 mN. The integrity of the endothelium was assessed by pre‐contracting the vessel with 10 μM methoxamine (an α1‐adrenoceptor agonist), followed by relaxation with 10 μM carbachol (a muscarinic acetylcholine receptor agonist); vessels showing relaxations of greater than 90% were designated as endothelium‐intact. When the endothelium was not required, it was removed by rubbing the intima with a human hair; carbachol‐induced relaxation of less than 10% indicated successful removal. After the test for endothelial integrity, vessels were left for 30 min and then pre‐contracted with 10 μM methoxamine. This was followed by construction of a cumulative concentration–relaxation curve to VSN16R (10 nM–1 μM). […] Most experiments were performed in matched vessels; effects of blockers or endothelial removal were compared with the control responses obtained in separate vessels of the same rats. All relaxant responses are expressed as percentage relaxation of the tone induced by methoxamine. Values are given as mean ± SEM. Statistical comparisons of concentration‐dependent responses were made by two‐way ANOVA using Prism 4 (GraphPad Software, Inc, San Diego, CA, USA).

SK+Ca channel (KCNN2) = molecular target: T3, SK+Ca channel (KCNN2) (Homo sapiens, UniProt Q9H2S1); experiment: Receptor binding profile of VSN16R
T3 construct: purchased Cerep; Chantest; DiscoveRx; Multispan; MDS Pharma Services

CYP450 2C8 = molecular target: T4, CYP450 2C8 (Homo sapiens, UniProt P10632); experiment: CYP450 inhibition of substrate binding; assay type: in vitro ADME; details: read-out: IC50 Inhibition of substrate binding, VSN16R
T4 construct: host or cells: BTI NN-5B1-4 or Sf9 insect cells
Description: (§1) Inhibition of binding of either 3-cyano-7-ethoxycoumarin, dibenzylfluorescein or 7-benzyoxy-4-
(§2) (trifluoromethyl) coumarin in human enzyme transfected BTI NN-5B1-4 cells or Sf9 insect cells or
(§3) inhibition of dextromethorphan substrate to CYP450 2D6 in liver microsomes.

GPR55 = molecular target: T5, GPR55 (Homo sapiens, UniProt Q9Y2T6); experiment: Receptor binding profile of VSN16R
T5 construct: purchased Cerep; Chantest; DiscoveRx; Multispan; MDS Pharma Services

5-HT2A = molecular target: T6, 5-HT2A (Homo sapiens, UniProt P28223); experiment: Receptor binding profile of VSN16R; details: 10µM VSN16R
T6 construct: purchased Cerep; Chantest; DiscoveRx; Multispan; MDS Pharma Services

CYP450 2C9 = molecular target: T7, CYP450 2C9 (Homo sapiens, UniProt P11712); experiment: CYP450 inhibition of substrate binding; assay type: in vitro ADME; details: read-out: IC50 Inhibition of substrate binding, VSN16R
T7 construct: host or cells: BTI NN-5B1-4 or Sf9 insect cells
Description: as §1, §2, §3

A2A = molecular target: T8, A2A (Homo sapiens, UniProt P29274); experiment: Receptor binding profile of VSN16R; details: 10µM VSN16R
T8 construct: purchased Cerep; Chantest; DiscoveRx; Multispan; MDS Pharma Services
T8 sequence (P29274 whole entry): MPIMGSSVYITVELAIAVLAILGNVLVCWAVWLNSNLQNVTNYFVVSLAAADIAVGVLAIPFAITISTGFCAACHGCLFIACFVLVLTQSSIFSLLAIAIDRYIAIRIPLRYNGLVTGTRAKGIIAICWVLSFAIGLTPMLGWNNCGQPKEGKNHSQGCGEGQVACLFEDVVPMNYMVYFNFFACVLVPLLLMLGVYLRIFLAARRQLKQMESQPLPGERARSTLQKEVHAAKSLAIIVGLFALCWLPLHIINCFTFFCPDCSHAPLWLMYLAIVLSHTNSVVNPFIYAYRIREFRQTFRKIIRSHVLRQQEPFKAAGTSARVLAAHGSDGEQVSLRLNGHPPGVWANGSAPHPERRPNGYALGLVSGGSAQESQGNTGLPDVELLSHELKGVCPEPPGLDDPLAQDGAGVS

T5 sequence (Q9Y2T6 whole entry): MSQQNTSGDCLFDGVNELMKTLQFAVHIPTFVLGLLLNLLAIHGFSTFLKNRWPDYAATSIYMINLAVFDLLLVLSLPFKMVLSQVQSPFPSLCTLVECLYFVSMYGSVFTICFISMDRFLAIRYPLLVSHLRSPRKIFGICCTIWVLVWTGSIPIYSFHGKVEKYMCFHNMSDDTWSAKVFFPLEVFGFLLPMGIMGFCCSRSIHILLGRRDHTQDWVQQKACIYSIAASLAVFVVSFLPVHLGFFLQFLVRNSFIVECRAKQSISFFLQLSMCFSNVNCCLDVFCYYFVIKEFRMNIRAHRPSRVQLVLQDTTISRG
T1 sequence (P50406 whole entry): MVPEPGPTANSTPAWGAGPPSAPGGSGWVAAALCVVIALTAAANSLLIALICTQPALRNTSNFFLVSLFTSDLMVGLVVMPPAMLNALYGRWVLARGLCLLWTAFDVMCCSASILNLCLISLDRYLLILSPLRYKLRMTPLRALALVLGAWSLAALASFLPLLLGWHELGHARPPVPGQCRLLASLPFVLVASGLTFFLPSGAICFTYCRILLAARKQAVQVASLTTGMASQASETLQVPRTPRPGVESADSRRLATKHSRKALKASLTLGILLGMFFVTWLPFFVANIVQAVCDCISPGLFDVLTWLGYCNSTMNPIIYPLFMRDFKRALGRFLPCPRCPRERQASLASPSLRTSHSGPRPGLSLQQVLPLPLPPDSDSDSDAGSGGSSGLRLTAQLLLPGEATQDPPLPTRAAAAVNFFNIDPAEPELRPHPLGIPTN
T2 sequence (P35372 whole entry): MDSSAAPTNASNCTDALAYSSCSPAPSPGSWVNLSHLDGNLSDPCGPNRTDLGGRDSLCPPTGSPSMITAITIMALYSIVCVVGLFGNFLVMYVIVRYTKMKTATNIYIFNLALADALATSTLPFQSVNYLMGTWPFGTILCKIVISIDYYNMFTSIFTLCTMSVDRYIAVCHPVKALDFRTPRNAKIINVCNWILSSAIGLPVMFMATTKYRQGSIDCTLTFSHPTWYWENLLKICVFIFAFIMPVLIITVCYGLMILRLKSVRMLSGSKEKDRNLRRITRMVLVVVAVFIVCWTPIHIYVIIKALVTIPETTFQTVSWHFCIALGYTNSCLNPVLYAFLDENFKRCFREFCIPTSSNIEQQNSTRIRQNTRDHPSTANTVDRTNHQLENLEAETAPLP
T4 sequence (P10632 whole entry): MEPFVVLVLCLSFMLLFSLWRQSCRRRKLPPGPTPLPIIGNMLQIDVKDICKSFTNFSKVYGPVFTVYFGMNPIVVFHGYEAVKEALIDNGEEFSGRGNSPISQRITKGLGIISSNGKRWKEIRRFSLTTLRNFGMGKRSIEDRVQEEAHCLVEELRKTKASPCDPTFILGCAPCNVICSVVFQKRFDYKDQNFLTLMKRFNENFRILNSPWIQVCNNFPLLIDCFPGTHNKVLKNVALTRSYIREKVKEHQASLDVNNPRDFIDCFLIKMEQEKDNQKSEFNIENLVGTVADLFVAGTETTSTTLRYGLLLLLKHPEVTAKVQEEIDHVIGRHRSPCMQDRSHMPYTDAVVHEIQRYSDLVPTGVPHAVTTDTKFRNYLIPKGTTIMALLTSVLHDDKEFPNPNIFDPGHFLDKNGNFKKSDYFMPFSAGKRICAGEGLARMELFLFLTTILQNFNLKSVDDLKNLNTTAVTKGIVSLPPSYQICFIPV
T6 sequence (P28223 whole entry): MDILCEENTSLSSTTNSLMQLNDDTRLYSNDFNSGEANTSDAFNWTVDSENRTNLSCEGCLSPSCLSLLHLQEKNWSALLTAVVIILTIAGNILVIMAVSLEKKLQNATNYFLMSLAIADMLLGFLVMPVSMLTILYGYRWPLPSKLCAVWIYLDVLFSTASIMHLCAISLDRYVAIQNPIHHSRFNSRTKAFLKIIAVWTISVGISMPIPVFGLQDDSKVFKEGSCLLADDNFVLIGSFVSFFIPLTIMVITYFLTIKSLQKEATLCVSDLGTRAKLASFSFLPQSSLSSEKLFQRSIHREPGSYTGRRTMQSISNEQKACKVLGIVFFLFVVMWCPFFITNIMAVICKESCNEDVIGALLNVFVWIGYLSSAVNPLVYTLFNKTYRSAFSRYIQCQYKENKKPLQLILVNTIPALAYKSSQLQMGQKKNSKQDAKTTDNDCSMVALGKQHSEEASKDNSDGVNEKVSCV
T7 sequence (P11712 whole entry): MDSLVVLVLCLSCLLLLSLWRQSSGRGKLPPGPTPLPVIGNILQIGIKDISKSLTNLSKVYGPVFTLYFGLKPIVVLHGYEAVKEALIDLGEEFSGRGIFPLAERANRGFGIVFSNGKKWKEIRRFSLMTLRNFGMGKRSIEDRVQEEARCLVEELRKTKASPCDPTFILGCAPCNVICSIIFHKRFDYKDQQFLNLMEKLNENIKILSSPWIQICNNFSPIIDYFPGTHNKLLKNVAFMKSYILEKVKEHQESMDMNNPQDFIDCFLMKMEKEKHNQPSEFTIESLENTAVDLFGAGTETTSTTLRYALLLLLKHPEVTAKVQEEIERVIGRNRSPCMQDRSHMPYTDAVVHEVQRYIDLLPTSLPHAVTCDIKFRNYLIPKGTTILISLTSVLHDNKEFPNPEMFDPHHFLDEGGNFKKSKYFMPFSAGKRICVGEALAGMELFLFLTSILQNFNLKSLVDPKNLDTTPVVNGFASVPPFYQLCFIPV

## C[C@H](CO)NC(=O)c1cccc(/C=C\CCCC(=O)N(C)C)c1 [VSN16R]
rats
  Reproductive toxicology safe level: 1000 mg·kg^−1
5-HT6
  Activity: Negligible Activity
Beagle dogs; 50mg/kg p.o., 30min
  Arterial Pressure: 97 ± 5 mm Hg
  Diastolic Blood Pressure: 83 ± 4 mm Hg
  Heart Rate: 104 ± 9 bpm
  Systolic Blood Pressure: 141 ± 6 mm Hg
Beagle dogs; 50mg/kg p.o., 60min
  Arterial Pressure: 106 ± 5 mm Hg
  Diastolic Blood Pressure: 87 ± 4 mm Hg
  Heart Rate: 119 ± 9 bpm
  Systolic Blood Pressure: 143 ± 6 mm Hg
Beagle dogs; 100mg/kg p.o., 30min
  Arterial Pressure: 99 ± 5 mm Hg
  Diastolic Blood Pressure: 86 ± 4 mm Hg
  Heart Rate: 114 ± 9 bpm
  Systolic Blood Pressure: 139 ± 6 mm Hg
Beagle dogs; 100mg/kg p.o., 60min
  Arterial Pressure: 106 ± 5 mm Hg
  Diastolic Blood Pressure: 91 ± 4 mm Hg
  Heart Rate: 111 ± 9 bpm
  Systolic Blood Pressure: 138 ± 6 mm Hg
Beagle dogs; 200mg/kg p.o., 30min
  Arterial Pressure: 97 ± 5 mm Hg
  Diastolic Blood Pressure: 87 ± 1 mm Hg
  Heart Rate: 125 ± 9 bpm
  Systolic Blood Pressure: 130 ± 6 mm Hg
Beagle dogs; 200mg/kg p.o., 60min
  Arterial Pressure: 102 ± 5 mm Hg
  Diastolic Blood Pressure: 88 ± 4 mm Hg
  Heart Rate: 134 ± 9 bpm
  Systolic Blood Pressure: 130 ± 6 mm Hg
Beagle dogs; dog, in vivo
  Cardiovascular issues: no cardiovascular issues
Beagle dogs; dogs
  Hypotension: did not induce hypotension
WP2uvvA; First Mutation without Metabolic Stimulation, 17µg
  Revertants per plate: 5.3 ± 0.6
WP2uvvA; First Mutation without Metabolic Stimulation, 5000µg
  Revertants per plate: 1.3 ± 1.2
WP2uvvA; Second Mutation without Metabolic Stimulation, 17µg
  Revertants per plate: 10.3 ± 6.7
WP2uvvA; Second Mutation without Metabolic Stimulation, 5000µg
  Revertants per plate: 8.0 ± 4.6
μ
  Activity: Negligible Activity
[1]
  Effect on primary porcine aorta endothelium: do not respond; also recorded: had no effects
Rat mesenteric artery; 60 mM KCl
  Relaxation in the presence of extracellular KCl: produced no relaxation
Rat mesenteric artery; endothelium intact vs denuded
  Vasorelaxation: significant vasorelaxation in an endothelium‐dependent manner
SK+Ca channel (KCNN2); 10µM VSN16R
  Activity: Negligible Activity
SK+Ca channel (KCNN2); transfected cells
  Block of apamin binding to KCa2.2 channels: failed to block the binding of apamin
CYP450 2C8
  pIC50: < 5.00
GPR55; 10µM VSN16R
  Activity: Negligible Activity
GPR55; Multispan C1113, H113, HEK293T.GPR55 and mouse DBT.Gpr55 cell lines
  Binding to GPR55: does not directly bind
5-HT2A
  Activity: Negligible Activity
CYP450 2C9
  pIC50: < 5.00
A2A
  Activity: Negligible Activity
